Common to all, as to format: cell-based
In one experiment the test system is VCaP cells. As to the kind of experiment: Cellular growth inhibition assay for VCaP cells. To be noted: Homo sapiens, 72 hours, CellTiter-Glo 2.0. As for the experimental part: VCaP cells were purchased from American Type Cell Culture (ATCC Cat #CRL2876) and then seeded on poly-D-lysine coated, black clear-bottom 384-well plates at 5000/well in 25 μL Dulbecco's Modified Eagle Medium (DMEM) supplemented with 10% w/w Fetal bovine serum (FBS) and 1% w/w Pen-Strep. Pen-Strep is a commercially available mixture of penicillin G and streptomycin, which is used in mammalian cell culture media to prevent bacterial contamination. Dulbecco's Modified Eagle Medium (DMEM) supplemented with 10% w/w fetal bovine serum (FBS) and 1% w/w Pen-Strep is herein referred to as Treatment Medium. Following seeding of cells in the plates, the plates were spun at 300×g for 30 seconds, then equilibrated to room temperature for 30 minutes, and then deposited in a humidified tissue culture incubator maintained at 37° C. with 5% CO2.
(§1) At 24 hours after seeding of the cells, dilutions of test compound were prepared in DMSO and dissolved in Treatment Medium, to achieve a final DMSO concentration of 0.5% w/w, thereby providing the Test Compound Solution. A 25 μL aliquot of the Test Compound Solution was added to cells in the well plates. An equal volume of a solution containing DMSO and Treatment Medium was used as a negative control. Following treatment of cells with Test Compound Solution or said equal volume of a solution containing DMSO and Treatment Medium, the plates were spun at 300×g for 30 seconds, and then left in an incubator for 72 hours.
At the end of the treatment duration, cell viability was quantified with CellTiter-Glo 2.0 reagent (Promega Cat #G9243). For this purpose, plates were equilibrated to room temperature for 30 minutes, and then 25 μL of CellTiter-Glo 2.0 reagent was added to cells in the plate wells. Plates were then agitated on a shaker for two minutes at 500 rpm and subsequently incubated at room temperature for 10 minutes. Following incubation, the plates were spun at 3000×g for 30 seconds, then sealed with an optical adhesive cover, and luminescence readings were measured with an EnVision Plate Reader. Data was normalized using zero luminescence for baseline.
A four-parameter non-linear regression curve fit was applied to dose-response data in GraphPad Prism data analysis software to determine the half-maximal growth inhibitory concentration (GI50) for each test compound.

For experiment [1], the system named is T-Rex 293 cell line SC3 cells lacking increased expression of androgen receptor protein. Nature of the experiment: Cellular growth inhibition, T-Rex 293 SC3 cells without doxycycline. The settings on record: not exposed to doxycycline, 72 hours, CellTiter-Glo 2.0. As for the experimental part: (§2) The following types of cells were prepared for this experiment: (i) a T-Rex 293 cell line having increased expression of androgen receptor protein due to exposure to doxycycline and (ii) a T-Rex 293 cell line lacking increased expression of androgen receptor protein. Ability of the test compounds to inhibit proliferation of the foregoing cell types was evaluated according to the procedures set forth below.
(§3) The doxycycline-inducible androgen receptor protein expressing cell line was established using the following protocol: T-Rex 293 cells were purchased from Invitrogen (Cat #R71007) and transfected using Lipofectamine 2000 with the wild-type androgen receptor protein sequence cloned into the pcDNA4/TO vector. Transfected cells were selected using 400 μg/mL Zeocin (Invitrogen Cat #R25001). Following selection, single clones were raised and maintained in Dulbecco's Modified Eagle Medium (DMEM) supplemented with 10% w/w Tetracycline-free fetal bovine serum (FBS) and 250 μg/mL Zeocin. Clones were analyzed for expression of androgen receptor protein in the presence and absence of 10 ng/mL doxycycline (Sigma Cat #D9891), and a single doxycycline-inducible clone (hereinafter “SC3”) was selected for use in downstream assays.
(§4) The SC3 cells were seeded on poly-D-lysine coated, black clear-bottom 384-well plates at 2500/well, in 25 μL Phenol Red Free Dulbecco's Modified Eagle Medium (DMEM) supplemented with 10% w/w charcoal-dextran treated fetal bovine serum (FBS) and 1% w/w pen-strep, with or without 10 ng/mL doxycycline. Pen-Strep is a commercially available mixture of penicillin G and streptomycin, which is used in mammalian cell culture media to prevent bacterial contamination. Phenol Red Free Dulbecco's Modified Eagle Medium (DMEM) supplemented with 10% w/w charcoal-dextran treated fetal bovine serum (FBS) and 1% w/w pen-strep, with or without 10 ng/mL doxycycline is herein referred to as Treatment Medium. Following seeding of cells in the plates, the plates were spun at 300×g for 30 seconds, then equilibrated to room temperature for 30 minutes, and then deposited in a humidified tissue culture incubator maintained at 37° C. with 5% CO2.
as §1
(§5) At the end of the treatment duration, cell viability was quantified with CellTiter-Glo 2.0 reagent (Promega Cat #G9243). For this purpose, plates were equilibrated to room temperature for 30 minutes, and then 25 μL of CellTiter-Glo 2.0 reagent was added to cells in the plate wells. Plates were then agitated on a shaker for two minutes at 500 rpm and subsequently incubated at room temperature for 10 minutes. Following incubation, the plates were spun at 3000×g for 30 seconds, then sealed with an optical adhesive cover, and luminescence readings were measured with an EnVision Plate Reader.
(§6) Data was normalized using zero luminescence for baseline. A four-parameter non-linear regression curve fit was applied to dose-response data in GraphPad Prism data analysis software to determine the half-maximal growth inhibitory concentration (GI50) for each test compound.

Experiment [2] concerns T-Rex 293 cell line SC3 cells having increased expression of androgen receptor protein. As to the kind of experiment: Cellular growth inhibition, T-Rex 293 SC3 cells with doxycycline (increased androgen receptor expression). The settings on record: with 10 ng/mL doxycycline (increased androgen receptor), 72 hours, CellTiter-Glo 2.0. As for the experimental part:
as §2, §3, §4, §1, §5, §6
(In ATP-based viability assays light output follows the ATP content of the culture.)

Another experiment concerns T47D cells. Nature of the experiment: Cellular growth inhibition assay for T47D cells. The settings on record: Homo sapiens, 72 hours, CellTiter-Glo 2.0. Here is the method:
T47D cells were purchased from American Type Cell Culture (ATCC Cat #HTB-133) and then seeded on poly-D-lysine coated, black clear-bottom 384-well plates at 3000/well in 25 μL Dulbecco's Modified Eagle Medium (DMEM) supplemented with 10% w/w Fetal bovine serum (FBS), 0.2 units/mL recombinant human insulin (Gibco Cat #12585014), and 1% w/w Pen-Strep. Pen-Strep is a commercially available mixture of penicillin G and streptomycin, which is used in mammalian cell culture media to prevent bacterial contamination. Dulbecco's Modified Eagle Medium (DMEM) supplemented with 10% w/w fetal bovine serum (FBS), 0.2 units/mL recombinant human insulin, and 1% w/w Pen-Strep is herein referred to as Treatment Medium. Following seeding of cells in the plates, the plates were spun at 300×g for 30 seconds, then equilibrated to room temperature for 30 minutes, and then deposited in a humidified tissue culture incubator maintained at 37° C. with 5% CO2.
as §1
as §5, with “Reader (Perkin Elmer).” for “Reader.”
as §6

We go through 12 compounds from US20260159520A1, “HETEROBIFUNCTIONAL COMPOUNDS AND METHODS OF TREATING DISEASE” (Halda Therapeutics OpCo, Inc., priority 2022, published 2026).

The structures appear in SMILES notation.

For the compound `CCc1cnn2c(NCc3ccc(N4CC(N5CCC(C6CCN(c7ncc(C(=O)N[C@H]8C(C)(C)[C@H](Oc9ccc(C#N)c(Cl)c9)C8(C)C)cn7)CC6)CC5)C4)nc3)cc(N3CCCC[C@H]3CCO)nc12` [Compound I-66], the GI50 in the experiment on VCaP cells is 100 to 1000 nM; in experiment [1], greater than 3500 nM; in experiment [2], less than 100 nM; in the experiment with T47D cells, 1500 to 3000 nM.

With `COc1cc(F)ccc1-c1ccnc2[nH]c(C3CCN(CCOCCOCCOC4CCN(c5ncc(C(=O)N[C@H]6C(C)(C)[C@H](Oc7ccc(C#N)c(Cl)c7)C6(C)C)cn5)CC4)CC3)cc12` [Compound I-67, N-[3-(3-chloro-4-cyano-phenoxy)-2,2,4,4-tetramethyl-cyclobutyl]-2-[4-[2-[2-[2-[4-[4-(4-fluoro-2-methoxy-phenyl)-1H-pyrrolo[2,3-b]pyridin-2-yl]-1-piperidyl]ethoxy]ethoxy]ethoxy]-1-piperidyl]pyrimidine-5-carboxamide], the GI50 is greater than 3500 nM with VCaP cells, 1000 to 3500 nM in experiment [1], 100 to 1000 nM in experiment [2] and 1500 to 3000 nM in the experiment with T47D cells.

As for `CC(C)n1cc(-c2ccnc3[nH]c(C4CCN(CCOCCOCCOC5CCN(c6ncc(C(=O)N[C@H]7C(C)(C)[C@H](Oc8ccc(C#N)c(Cl)c8)C7(C)C)cn6)CC5)CC4)cc23)ccc1=O` [Compound I-77], the GI50 in the experiment with VCaP cells lay in the range of 100 to 1000 nM; in experiment [1], 100 to 1000 nM; in experiment [2], 100 to 1000 nM; in the experiment on T47D cells, 500 to 1500 nM.

For the compound `CCc1cnn2c(NCc3ccc(N4CCN(C5CCN(C6CN(c7ncc(C(=O)N[C@H]8C(C)(C)[C@H](Oc9ccc(C#N)c(Cl)c9)C8(C)C)cn7)C6)CC5)CC4)nc3)cc(N3CCCC[C@H]3CCO)nc12` [Compound I-79], the concentration for 50% growth inhibition (GI50) is less than 100 nM in the experiment with VCaP cells, less than 100 nM in experiment [1], less than 100 nM in experiment [2] and less than 500 nM in the experiment on T47D cells.

For the compound `CCc1cnn2c(NCc3ccc(N4CCC(OCCC5CCN(c6ncc(C(=O)N[C@H]7C(C)(C)[C@H](Oc8ccc(C#N)c(Cl)c8)C7(C)C)cn6)CC5)C4)nc3)cc(N3CCCC[C@H]3CCO)nc12` (stereo partly drawn) [Compound I-80], the GI50 is 100 to 1000 nM in the experiment on VCaP cells, greater than 3500 nM in experiment [1], less than 100 nM in experiment [2] and 500 to 1500 nM with T47D cells.

Turning to `CCc1cnn2c(NCc3ccc(N(C)CCCN4CCC(C5CN(c6ncc(C(=O)N[C@H]7C(C)(C)[C@H](Oc8ccc(C#N)c(Cl)c8)C7(C)C)cn6)C5)CC4)nc3)cc(N3CCCC[C@H]3CCO)nc12` [Compound I-82], the GI50 was in the range of 100 to 1000 nM in the experiment with VCaP cells, 100 to 1000 nM in experiment [1], 100 to 1000 nM in experiment [2] and 500 to 1500 nM in the experiment with T47D cells.

With `CCc1cnn2c(NCc3ccc(OCCOC4CCN(c5ncc(C(=O)N[C@H]6C(C)(C)[C@H](Oc7ccc(C#N)c(Cl)c7)C6(C)C)cn5)CC4)nc3)cc(N3CCCC(F)(F)C3)nc12` [Compound I-84, N-[3-(3-chloro-4-cyano-phenoxy)-2,2,4,4-tetramethyl-cyclobutyl]-2-[4-[2-[[5-[[[5-(3,3-difluoro-1-piperidyl)-3-ethyl-pyrazolo[1,5-a]pyrimidin-7-yl]amino]methyl]-2-pyridyl]oxy]ethoxy]-1-piperidyl]pyrimidine-5-carboxamide], the GI50 in the experiment on VCaP cells was greater than 3500 nM; in experiment [1], greater than 3500 nM; in experiment [2], 100 to 1000 nM; with T47D cells, 1500 to 3000 nM.

For `CCc1cnn2c(NCc3ccc(N(C)CCOC4CCN(C5CN(c6ncc(C(=O)N[C@H]7C(C)(C)[C@H](Oc8ccc(C#N)c(Cl)c8)C7(C)C)cn6)C5)CC4)nc3)cc(N3CCCC[C@H]3CCO)nc12` [Compound I-85], the concentration for 50% growth inhibition (GI50) in the experiment on VCaP cells was 100 to 1000 nM; in experiment [1] it was 100 to 1000 nM; in experiment [2], 100 to 1000 nM; with T47D cells, less than 500 nM.

For the compound `CC1(C)[C@H](NC(=O)c2cnc(N3CCC(OCCOCCOCCN4C/C=C/CCOc5cccc(c5)-c5ccnc(n5)Nc5cccc(c5)C4)CC3)nc2)C(C)(C)[C@H]1Oc1ccc(C#N)c(Cl)c1` [Compound I-89], the 50% growth inhibitory concentration (GI50) was greater than 3500 nM with VCaP cells, greater than 3500 nM in experiment [1], 100 to 1000 nM in experiment [2] and greater than 3000 nM with T47D cells.

As to `CCc1cnn2c(NCc3ccc(OCCN4CCN(CC5CCN(c6ncc(C(=O)N[C@H]7C(C)(C)[C@H](Oc8ccc(C#N)c(Cl)c8)C7(C)C)cn6)CC5)CC4)nc3)cc(N3CCCC(F)(F)C3)nc12` [Compound I-91], the GI50 was greater than 3500 nM in the experiment with VCaP cells, greater than 3500 nM in experiment [1], 100 to 1000 nM in experiment [2] and 500 to 1500 nM with T47D cells.

Regarding `CCc1cnn2c(NCc3ccc(OCCCN4CCN(CC5CCN(c6ncc(C(=O)N[C@H]7C(C)(C)[C@H](Oc8ccc(C#N)c(Cl)c8)C7(C)C)cn6)CC5)CC4)nc3)cc(N3CCCC(F)(F)C3)nc12` [Compound I-92], the GI50 is 100 to 1000 nM in the experiment on VCaP cells, 1000 to 3500 nM in experiment [1], 100 to 1000 nM in experiment [2] and 500 to 1500 nM with T47D cells.

As for `CCc1cnn2c(NCc3ccc(OCCCCN4CCN(CC5CCN(c6ncc(C(=O)N[C@H]7C(C)(C)[C@H](Oc8ccc(C#N)c(Cl)c8)C7(C)C)cn6)CC5)CC4)nc3)cc(N3CCCC(F)(F)C3)nc12` [Compound I-93], the GI50 in the experiment on VCaP cells was greater than 3500 nM; in experiment [1], greater than 3500 nM; in experiment [2] it was 100 to 1000 nM; in the experiment with T47D cells, 500 to 1500 nM.

As a reminder, the GI50 is the concentration that inhibits growth by half.
